Measured values published in patent US12383495B2, “Resident articles for gram-level dosing” (Massachusetts Institute of Technology, priority 2018, dated 2025).

Assays:
[1] = In vitro drug release from drug-vinylpolysiloxane pills/articles in simulated gastric fluid; type: physicochemical; conditions: for in vitro release from drug-VPS pill: SGF, 37° C., up to 28 days
Experimental: Articles with a series of 30 pills were made so that there was 1 gram of doxycycline hyclate in 2 grams of vinylpolysiloxane. Pills were coated with either cellulose acetate butyrate (CAB) or with Eudragit RS PO. A control with no coatings was also made. The articles were immersed in simulated gastric fluid, and the cumulative release of doxycycline hyclate was measured for more than 26 days. […] Thickness of coatings was tuned by increasing the spray volume. […] Individual pills made of drug-VPS for doxycycline hyclate, isoniazid, ethambutol, pyrazinamide, moxifloxacin were used to evaluate long-term release kinetics in SGF. […] Drug concentrations were then analyzed using a High-Performance Liquid Chromatography (HPLC). […] An Agilent 1260 Infinity II HPLC system (Agilent Technologies, Inc.) equipped with a Model 1260 quaternary pump, Model 1260 High Performance autosampler, Model 1260 thermostat, Model 1260 Infinity Thermostatted Column Compartment control module, and Model 1260 diode array detector was utilized. Data processing and analysis was performed using OpenLab CDS ChemStation (Agilent Technologies, Inc.). All solvents used were purchased from Sigma-Aldrich Corporation. For doxycycline hyclate, chromatographic isocratic separation was carried out on an Agilent 4.6×50 mm AdvanceBio RP-mAb SB-C8 analytical column with 3.5 μm particles, maintained at 55° C. The optimized mobile phase consisted of 20 mM dipotassium phosphate buffer and acetonitrile (pH 6 adjusted with triethylamine) [60:40 (v/v)] at a flow rate of 0.85 mL/min over a 4 min run time. The injection volume was 5 μl, and the selected ultraviolet (UV) detection wavelength was 293 nm.

[2] = pig, in vivo
[3] = In vitro drug release from drug-VPS pills/devices in water; type: physicochemical; conditions: 37° C.
Experimental: Three intact rifampicin devices were fabricated by loading 2 grams of drug into VPS pills. The devices were incubated in 500 mL of nanopure water for up to 26 days in a shaking incubator at 37° C. and 200 rpm, with media exchange at specified time intervals. […] The drug concentrations samples were then measured on an Infinite M200Pro (Tecan) reader (absorbance, 475 nm).

In the case of doxycycline hyclate, the burst release ([1]; PEG 3350 in matrix, pills coated with Eudragit RS PO or Eudragit NM 30D) is reported as “prevented the burst release in the first day”, the rate of release ([1]; PEG 3350 in matrix, thicker coating of Eudragit NM 30D) is reported as “slower rate of release” and the release kinetic profile ([1]; VPS pills coated with Eudragit RS 100, SGF) is reported as “linear kinetic profile with limited burst release”. For the same compound, the burst release ([1]; article of 30 pills coated with Eudragit RS PO, simulated gastric fluid, vs uncoated control) was “prevented the burst release in the first couple days”, the burst release ([1]; article of 30 pills coated with cellulose acetate butyrate (CAB), simulated gastric fluid, vs uncoated control) was “prevented the burst release in the first couple days” and the “duration of drug release (cumulative release)” value ([1]; articles of 30 pills, 1 gram drug in 2 grams vinylpolysiloxane, CAB-coated, Eudragit RS PO-coated or uncoated, simulated gastric fluid) was “more than 26 days”. The “burst release and release rate” value ([1]; multi-matrix pill (concentric layers of different drug/matrix concentration)) was “reducing the burst release and release rate”, the “burst release and release rate” value ([1]; pills coated with PDMS of different viscosities (750 cst and 25 cst)) was “blunted the burst release and slowed down the release rate” and the “effect of excipient on rate of release” value ([1]; polyethylene glycol (PEG) 3350 added to drug/siloxane matrix) was “increase the rate of release”. For the same compound, the absorption [2] was “absorbed rapidly”, the “duration of detectable drug in serum” value [2] was “at least 28 days” and the “duration of sustained drug release (non-zero concentrations in the blood)” value [2] was “at least 7 days”.

With `CC[C@@H](CO)NCCN[C@@H](CC)CO` [ethambutol] the “in vitro release from drug-VPS pill” value [1] was “able to release”.

In the case of `NC(=O)c1cnccn1` [pyrazinamide], the “in vitro release from drug-VPS pill” value [1] is reported as “able to release”.

In the case of `NNC(=O)c1ccncc1` [isoniazid], the “in vitro release from drug-VPS pill/device” value [3] is reported as “able to release”.

In the case of `CO[C@H]1/C=C/O[C@@]2(C)Oc3c(C)c(O)c4c(O)c(c(/C=N/N5CCN(C)CC5)c(O)c4c3C2=O)NC(=O)/C(C)=C\C=C\[C@H](C)[C@H](O)[C@@H](C)[C@@H](O)[C@@H](C)[C@H](OC(C)=O)[C@@H]1C` [rifampicin], the “duration of detectable serum concentrations” value [2] is reported as “detectable serum concentrations for a week”.
